The text below walks through data of US11911408B2, “Synergistic formulations of adenosine receptor modulating agents and anticholinergics” (UNIVERSITY OF ALASKA FAIRBANKS, priority 2021, dated 2024).

For data set [1], the system named is Sprague-Dawley rats. Kind of data set: 8-SPT dose determination (IV): atropine and 8-SPT bolus before CHA loading dose and infusion, 4° C. cooled surface. The format is in vivo, rat. Conditions: Atropine 1 mg/kg and SPT 10, 15 or 25 mg/kg (all doses) 15 min before CHA 1 mg/kg bolus, 0.25 mg/(kg·h) IV; n=5.
Description: To define the dose-response relationship between 8-SPT combined with a constant concentration of atropine and CHA, three drug treatment combinations with varying doses of 8-SPT were tested. […] One hour of baseline data (body temperature, blood pressure, heart rate, and metabolism) were acquired before treatment. Rats received IV bolus of Atropine and 8-SPT 15 minutes before CHA. An IV loading dose of CHA was administered followed by a two hour continuous infusion of CHA. Rats were placed on a 4° C. cooled surface (previously described Laughlin et al). Surface temperature was manually adjusted to prevent body temperature from falling below 32° C.
Rats were placed inside a 12″×12″ clear acrylic box without bedding sitting on top of a custom built, aluminum hydronic surface. The aluminum surface was part of a cooling and heating system controlled by a thermostat in which circulating water was heated or cooled via thermoelectric Peltier plates and pumped through the aluminum cage floor. […] Food and water was provided ad libitum.
In data set [2] the test system is Sprague-Dawley rats. Briefly: Minimizing hemodynamic effects: antagonist pretreatments before IP CHA/CPA, rats on 4° C. cooled surface.
Description: Fifteen different treatment combinations were administered to five male Sprague-Dawley rats with an average age of 314±88 days and weight of 453±44 g (mean±SD) in a modified cross over design as shown in Table 1). […] A washout period of at least one week was allowed between treatments. One hour of baseline data (body temperature, blood pressure, heart rate, and metabolism) was acquired before treatment. Rats received either a single IP injection of CHA or were pre-treated with antagonists 15 or 30 minutes prior to CHA drugs and were then placed on a 4° C. cooled surface (previously described Laughlin et al; herein incorporated by reference). Surface temperature was manually adjusted to prevent body temperature from falling below 32° C.
The pressure transducer was cannulated into the descending abdominal aorta.
Rats were placed inside a 12″×12″ clear acrylic box without bedding sitting on top of a custom built, aluminum hydronic surface. The aluminum surface was part of a cooling and heating system controlled by a thermostat in which circulating water was heated or cooled via thermoelectric Peltier plates and pumped through the aluminum cage floor. […] Food and water was provided ad libitum. The vascular access button was attached to a tether and swivel (Instech, VAHD115T, 375/D/22, Plymouth Meeting, Pa.) connected to a counter balance arm to provide freedom of movement.
The mark [3] stands for this setting: 8-SPT 25 mg/kg 15 min before CHA (S15C), n=4-5.
Setting [4] is: 8-SPT 25 mg/kg administered 30 min after CHA 1 mg/kg, n=4-5.

“Also recorded” adds a separate entry of the source.

For the compound `Cn1c(=O)c2[nH]c(-c3ccc(S(=O)(=O)O)cc3)nc2n(C)c1=O` [8-SPT, 8-(p-sulfophenyl) theophylline], the CHA induced hypotension result in the data set with Sprague-Dawley rats [1] is on record as “effectively blocked”. Also, in the data set with Sprague-Dawley rats [2] (setting [3]), the “effect on heart rate compared to CHA 1 mg/kg alone” value was “minimal effect” and the “effect on mean arterial pressure compared to CHA 1 mg/kg alone” value is listed as “minimal effect”. Further, in the data set on Sprague-Dawley rats [2] (setting [4]), the core body temperature entry was “increased significantly”, the heart rate result is listed as “increased significantly”, the mean arterial pressure entry is “increased significantly” and the oxygen consumption entry is given as “increased significantly”. In the data set on Sprague-Dawley rats [2] (8-SPT 25 mg/kg alone 15 min before CHA 1 mg/kg (S15C), n=3-5), the “prevention of CHA induced hypotension” value was “not sufficient”. For the same compound, in the data set with Sprague-Dawley rats [2] (8-SPT alone (pretreatment), dose not stated), the “prevention of the initial drop in blood pressure or heart rate (hypotension) immediately following CHA administration” value is given as “cannot prevent; also recorded: not sufficient”. For the same compound, the “increase of blood pressure” value with Sprague-Dawley rats [2] (8-SPT alone, after metabolic suppression is stabilized) is “sufficient”.
For `CN1C2CCC1CC(OC(=O)C(CO)c1ccccc1)C2` (centres unmarked) [Atropine, atropine], in the data set with Sprague-Dawley rats [2] (rat, in vivo), the “prevention of CHA induced hypotension” value is listed as “not sufficient; also recorded: does not prevent”.
For the compound `OC[C@H]1O[C@@H](n2cnc3c(NC4CCCCC4)ncnc32)[C@H](O)[C@@H]1O` [CHA, N6-Cyclohexyladenosine], the “blood pressure effect of the agonist alone” value in the data set with Sprague-Dawley rats [2] (1 mg/kg at time point zero, n=4-5) is on record as “hypotension”.
Turning to `CN(C)CCOC(c1ccccc1)c1ccccc1` [diphenhydramine], the prevention of hypotension result in the data set with Sprague-Dawley rats [2] (diphenhydramine 4 mg/kg alone 30 min before CHA 1 mg/kg (D30C), n=3-5) is given as “not sufficient”.
As to `CC(C)NCC(O)COc1cccc2ccccc12` (centres unmarked) [propranolol], the prevention of hypotension entry in the data set on Sprague-Dawley rats [2] (propranolol 4 mg/kg alone 15 min before CHA 1 mg/kg (P15C), n=3-5) is “not sufficient”.
